From article PMC12155096 (International Journal of Molecular Sciences, 2025)
Counter-ions that a name gives are not always drawn.

The compounds below were run against Photinus pyralis (firefly) luciferase (Photinus pyralis, UniProt P08659) (assay: biochemical). Details: not given.
Chain of Photinus pyralis (firefly) luciferase (P08659 whole entry): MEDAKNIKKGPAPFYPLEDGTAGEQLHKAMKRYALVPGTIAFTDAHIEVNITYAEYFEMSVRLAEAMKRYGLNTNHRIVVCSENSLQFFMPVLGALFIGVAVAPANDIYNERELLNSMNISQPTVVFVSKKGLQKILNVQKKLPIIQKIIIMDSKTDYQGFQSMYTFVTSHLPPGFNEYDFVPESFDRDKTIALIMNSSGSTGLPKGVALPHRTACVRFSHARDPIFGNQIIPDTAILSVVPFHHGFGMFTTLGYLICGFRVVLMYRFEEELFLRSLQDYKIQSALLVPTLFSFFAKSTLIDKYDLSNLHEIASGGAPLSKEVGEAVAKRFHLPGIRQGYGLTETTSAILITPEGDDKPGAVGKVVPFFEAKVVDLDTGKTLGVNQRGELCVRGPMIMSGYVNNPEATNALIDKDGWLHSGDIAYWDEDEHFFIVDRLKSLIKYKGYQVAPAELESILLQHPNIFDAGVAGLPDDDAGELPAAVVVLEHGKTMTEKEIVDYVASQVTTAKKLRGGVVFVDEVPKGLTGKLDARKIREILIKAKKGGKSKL
Type: biochemical
With Cc1ccc2nc(N)[nH]c(=O)c2c1Sc1ccncc1.Cl.Cl [Nolatrexed dihydrochloride] the “Luciferase IC50” value was “Inactive”. With NS(=O)(=O)C(F)(F)C(F)(F)C(F)(F)C(F)(F)C(F)(F)C(F)(F)C(F)(F)C(F)(F)F [PFOSA] the “Luciferase IC50 (half-maximal inhibitory concentration)” value was “Inactive”. With COc1cc(NC(C)CCCN)c2ncccc2c1 (centres unmarked) [Primaquine diphosphate] the “Luciferase IC50 (half-maximal inhibitory concentration)” value was “Inactive”. With CCCNCC(O)COc1ccccc1C(=O)CCc1ccccc1 (centres unmarked) [Propafenone hydrochloride] the “Luciferase IC50 (half-maximal inhibitory concentration)” value was “Inactive”. With O=C(c1ccc(OCCN2CCCCC2)cc1)c1c(-c2ccc(O)cc2)sc2cc(O)ccc12 [Raloxifene hydrochloride] the “Luciferase IC50 (half-maximal inhibitory concentration)” value was “Inactive”. In the case of CSc1ccc2c(c1)N(CCC1CCCCN1C)c1ccccc1S2 (centres unmarked) [Thioridazine hydrochloride], the “Luciferase IC50 (half-maximal inhibitory concentration)” value is reported as “Inactive”. In the case of Clc1ccccc1CN1CCc2sccc2C1 [Ticlopidine hydrochloride], the IC50 is reported as 8.71 µM. For CCCCCCCCCCCCCCCCCC(=O)O.OCCN(CCO)CCO [Triethanolamine stearate], the “Luciferase Efficacy (in parenthesis)” value was 74.82 ± 6.08 (-26 ± 14) %. For CC(CN(C)C)CN1c2ccccc2Sc2ccccc21.CC(CN(C)C)CN1c2ccccc2Sc2ccccc21.O=C(O)C(O)C(O)C(=O)O (centres unmarked) [Trimeprazine tartrate], the “Luciferase IC50 (half-maximal inhibitory concentration)” value was “Inactive”. For CCOc1ccccc1OCC1CNCCO1 (centres unmarked) [Viloxazine hydrochloride], the “Luciferase IC50 (half-maximal inhibitory concentration)” value was “Inactive”. With Cl[C@H]1[C@H](Cl)[C@@H](Cl)[C@H](Cl)[C@@H](Cl)[C@@H]1Cl [beta-Hexachlorocyclohexane] the “Luciferase IC50” value was “Inactive”. CC(C)c1nc(CN(C)C(=O)N[C@H](C(=O)N[C@@H](Cc2ccccc2)C[C@H](O)[C@H](Cc2ccccc2)NC(=O)OCc2cncs2)C(C)C)cs1 [ritonavir, reference compound] was tested, and the “Luciferase IC50 (half-maximal inhibitory concentration)” value was “Inactive”. With Diniconazole the “Luciferase IC50 (half-maximal inhibitory concentration)” value was “Inactive”. With HMR1171 trifluoroacetate (1:1) the “Luciferase IC50” value was “Inactive”. Kadethrin was tested, and the “Luciferase IC50” value was “Inactive”.

Same assay, conditions: read-out: Luciferase IC50 (half-maximal inhibitory concentration)
In the case of CCCCCCCCCCCCCCCCCC(=O)O.OCCN(CCO)CCO [Triethanolamine stearate], the IC50 is reported as 74.8 µM.

These compounds were tested against T1, human CYP2C19 (Homo sapiens, UniProt P33261) (assay: not given). Details: not given.
T1 sequence (P33261 whole entry): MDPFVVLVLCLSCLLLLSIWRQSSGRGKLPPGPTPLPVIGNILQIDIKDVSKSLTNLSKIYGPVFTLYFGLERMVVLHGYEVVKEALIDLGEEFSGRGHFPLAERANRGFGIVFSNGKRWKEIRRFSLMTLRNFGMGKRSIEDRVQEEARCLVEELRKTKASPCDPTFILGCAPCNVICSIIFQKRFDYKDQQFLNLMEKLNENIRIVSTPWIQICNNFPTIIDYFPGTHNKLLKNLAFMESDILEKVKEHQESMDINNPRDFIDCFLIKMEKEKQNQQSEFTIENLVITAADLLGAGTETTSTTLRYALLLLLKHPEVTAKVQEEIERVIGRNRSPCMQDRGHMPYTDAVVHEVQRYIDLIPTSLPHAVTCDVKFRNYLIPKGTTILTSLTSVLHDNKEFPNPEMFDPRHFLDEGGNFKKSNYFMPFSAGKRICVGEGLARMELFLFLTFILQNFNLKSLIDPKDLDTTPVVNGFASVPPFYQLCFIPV
With Cc1ccc2nc(N)[nH]c(=O)c2c1Sc1ccncc1.Cl.Cl [Nolatrexed dihydrochloride] the “CYP2C19 Efficacy” value was 3.3 ± 1.68 (-116 ± 1) %. For CCCCCCCCCCCCCCCCCC(=O)O.OCCN(CCO)CCO [Triethanolamine stearate], the “CYP2C19 Efficacy (in parenthesis)” value was 0.42 ± 0.18 (-127 ± 1) % and the IC50 was 0.42 µM. With HMR1171 trifluoroacetate (1:1) the IC50 was 28.3 µM.

What follows are compounds tested against T2, human CYP2C9 (Homo sapiens, UniProt P11712) (assay: not given). Details: not given.
T2 sequence (P11712 whole entry): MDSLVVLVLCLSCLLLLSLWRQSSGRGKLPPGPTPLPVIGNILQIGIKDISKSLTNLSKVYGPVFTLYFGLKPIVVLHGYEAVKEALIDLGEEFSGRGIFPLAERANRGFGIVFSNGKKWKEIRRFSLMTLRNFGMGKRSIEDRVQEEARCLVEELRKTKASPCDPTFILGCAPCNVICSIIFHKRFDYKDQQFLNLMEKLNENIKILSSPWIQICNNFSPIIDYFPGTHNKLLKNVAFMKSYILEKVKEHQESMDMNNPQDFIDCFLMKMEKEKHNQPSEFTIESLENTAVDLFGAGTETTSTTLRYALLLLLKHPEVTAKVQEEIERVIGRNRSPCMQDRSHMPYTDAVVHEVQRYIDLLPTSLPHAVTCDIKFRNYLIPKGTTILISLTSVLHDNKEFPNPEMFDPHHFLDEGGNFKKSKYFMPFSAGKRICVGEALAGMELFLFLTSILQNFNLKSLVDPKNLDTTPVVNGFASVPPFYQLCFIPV
Cc1ccc2nc(N)[nH]c(=O)c2c1Sc1ccncc1.Cl.Cl [Nolatrexed dihydrochloride] was tested, and the “CYP2C9 Efficacy” value was 4.82 ± 1.17 (-95 ± 9) %. With CCCCCCCCCCCCCCCCCC(=O)O.OCCN(CCO)CCO [Triethanolamine stearate] the “CYP2C9 Efficacy (in parenthesis)” value was 1.38 ± 0.34 (-98 ± 6) % and the IC50 was 1.38 µM. Compound HMR1171 trifluoroacetate (1:1) has an IC50 of 28.1 µM.

The compounds below were run against T2, human CYP2C9 (assay: biochemical). Details: CYP2C9 IC50.
For Cl[C@H]1[C@H](Cl)[C@@H](Cl)[C@H](Cl)[C@@H](Cl)[C@@H]1Cl [beta-Hexachlorocyclohexane], the IC50 was 4170 nM.

Same assay, conditions: CYP2C9 IC50 (half-maximal inhibitory concentration)
For NS(=O)(=O)C(F)(F)C(F)(F)C(F)(F)C(F)(F)C(F)(F)C(F)(F)C(F)(F)C(F)(F)F [PFOSA], the IC50 was 710 nM.

What follows are compounds tested against T3, human CYP1A2 (Homo sapiens, UniProt P05177) (assay: not given). Details: not given.
T3 sequence (P05177 1-516): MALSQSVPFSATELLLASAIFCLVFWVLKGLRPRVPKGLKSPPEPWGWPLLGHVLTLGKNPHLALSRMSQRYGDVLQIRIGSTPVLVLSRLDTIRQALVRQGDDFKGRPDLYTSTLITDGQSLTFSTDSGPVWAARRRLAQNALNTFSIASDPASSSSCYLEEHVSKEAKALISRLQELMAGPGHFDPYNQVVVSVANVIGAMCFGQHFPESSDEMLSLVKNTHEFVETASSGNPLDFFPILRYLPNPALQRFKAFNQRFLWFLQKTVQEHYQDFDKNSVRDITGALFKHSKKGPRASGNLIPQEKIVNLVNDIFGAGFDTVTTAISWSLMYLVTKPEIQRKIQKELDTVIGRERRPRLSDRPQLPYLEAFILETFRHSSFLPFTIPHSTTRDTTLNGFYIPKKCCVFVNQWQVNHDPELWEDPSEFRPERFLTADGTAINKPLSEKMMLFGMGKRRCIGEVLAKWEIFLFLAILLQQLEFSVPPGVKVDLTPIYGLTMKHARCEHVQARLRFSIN
In the case of Cc1ccc2nc(N)[nH]c(=O)c2c1Sc1ccncc1.Cl.Cl [Nolatrexed dihydrochloride], the “CYP1A2 Efficacy” value is reported as 3.33 ± 0.9 (-94 ± 12) %. With NS(=O)(=O)C(F)(F)C(F)(F)C(F)(F)C(F)(F)C(F)(F)C(F)(F)C(F)(F)C(F)(F)F [PFOSA] the “CYP1A2 IC50 (half-maximal inhibitory concentration)” value was “Inactive”. In the case of CCCCCCCCCCCCCCCCCC(=O)O.OCCN(CCO)CCO [Triethanolamine stearate], the “CYP1A2 Efficacy (in parenthesis)” value is reported as 3.98 ± 2.02 (-97 ± 4) % and the IC50 is reported as 3.98 µM. HMR1171 trifluoroacetate (1:1) was tested, and the “CYP1A2 IC50” value was “Inactive”.

The compounds below were run against CYP3A4 (Homo sapiens, UniProt P08684) (assay: not given). Details: not given.
Chain of CYP3A4 (P08684 whole entry): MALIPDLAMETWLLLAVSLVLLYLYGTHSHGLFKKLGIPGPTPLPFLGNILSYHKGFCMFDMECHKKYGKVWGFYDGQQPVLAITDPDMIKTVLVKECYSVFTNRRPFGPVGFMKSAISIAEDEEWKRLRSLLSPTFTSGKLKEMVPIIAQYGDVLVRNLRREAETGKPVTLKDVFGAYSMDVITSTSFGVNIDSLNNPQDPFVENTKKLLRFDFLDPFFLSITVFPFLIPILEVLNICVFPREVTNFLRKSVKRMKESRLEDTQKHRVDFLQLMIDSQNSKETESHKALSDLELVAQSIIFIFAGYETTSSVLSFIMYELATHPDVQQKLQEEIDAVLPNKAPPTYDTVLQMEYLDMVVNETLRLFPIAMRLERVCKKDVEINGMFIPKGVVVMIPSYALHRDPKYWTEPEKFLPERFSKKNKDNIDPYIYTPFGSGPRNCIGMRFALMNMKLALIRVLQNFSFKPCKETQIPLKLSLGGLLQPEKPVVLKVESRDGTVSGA
For NS(=O)(=O)C(F)(F)C(F)(F)C(F)(F)C(F)(F)C(F)(F)C(F)(F)C(F)(F)C(F)(F)F [PFOSA], the “CYP3A4 IC50 (half-maximal inhibitory concentration)” value was “Inactive”.

These compounds were tested against T1, human CYP2C19 (assay: biochemical). Details: CYP2C19 IC50.
Work on Cl[C@H]1[C@H](Cl)[C@@H](Cl)[C@H](Cl)[C@@H](Cl)[C@@H]1Cl [beta-Hexachlorocyclohexane] yielded an IC50 of 1.96 µM.

Same assay, conditions: CYP2C19 IC50 (half-maximal inhibitory concentration)
For NS(=O)(=O)C(F)(F)C(F)(F)C(F)(F)C(F)(F)C(F)(F)C(F)(F)C(F)(F)C(F)(F)F [PFOSA], the IC50 was 64.3 µM.

The compounds below were run against T3, human CYP1A2 (assay: biochemical). Details: CYP1A2 IC50.
Cl[C@H]1[C@H](Cl)[C@@H](Cl)[C@H](Cl)[C@@H](Cl)[C@@H]1Cl [beta-Hexachlorocyclohexane] showed an IC50 of 1140 nM.

The compounds below were run against human CYP2D6 (Homo sapiens, UniProt P10635) (assay: not given). Details: not given.
Chain of human CYP2D6 (P10635 whole entry): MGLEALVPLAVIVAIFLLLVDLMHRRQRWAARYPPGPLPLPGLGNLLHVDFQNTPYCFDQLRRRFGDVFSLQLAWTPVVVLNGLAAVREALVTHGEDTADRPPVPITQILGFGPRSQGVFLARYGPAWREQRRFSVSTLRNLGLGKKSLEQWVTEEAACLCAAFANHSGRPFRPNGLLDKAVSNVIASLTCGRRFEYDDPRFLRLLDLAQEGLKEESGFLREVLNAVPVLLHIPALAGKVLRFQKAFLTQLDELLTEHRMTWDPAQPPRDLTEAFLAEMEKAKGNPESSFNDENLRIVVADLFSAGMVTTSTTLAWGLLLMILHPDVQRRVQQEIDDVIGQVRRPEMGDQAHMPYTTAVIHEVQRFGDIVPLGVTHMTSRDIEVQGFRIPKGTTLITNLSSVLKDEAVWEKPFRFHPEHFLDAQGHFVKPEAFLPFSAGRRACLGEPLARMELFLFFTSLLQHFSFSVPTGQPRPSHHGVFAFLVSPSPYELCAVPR
In the case of Cc1ccc2nc(N)[nH]c(=O)c2c1Sc1ccncc1.Cl.Cl [Nolatrexed dihydrochloride], the “CYP2D6 Efficacy” value is reported as 14.43 ± 1.84 (-95 ± 12) %. NS(=O)(=O)C(F)(F)C(F)(F)C(F)(F)C(F)(F)C(F)(F)C(F)(F)C(F)(F)C(F)(F)F [PFOSA] was tested, and the “CYP2D6 IC50 (half-maximal inhibitory concentration)” value was “Inactive”. In the case of CCCCCCCCCCCCCCCCCC(=O)O.OCCN(CCO)CCO [Triethanolamine stearate], the “CYP2D6 Efficacy (in parenthesis)” value is reported as 35.34 ± 0 (-82 ± 6) % and the IC50 is reported as 35.3 µM. For Cl[C@H]1[C@H](Cl)[C@@H](Cl)[C@H](Cl)[C@@H](Cl)[C@@H]1Cl [beta-Hexachlorocyclohexane], the “CYP2D6 IC50” value was “Inactive”. In the case of HMR1171 trifluoroacetate (1:1), the IC50 is reported as 8.87 µM.
